One assay concerns the target NDM-1 (Klebsiella pneumoniae, UniProt C7C422). As to the kind of experiment: Enzyme activity: determination of IC50, fluorescence assay with CCF2-FA substrate (NDM-1). The conditions noted are these: 1 pM enzyme, 1.25 μM CCF2-FA, 2 hours at 25° C.; read-out: NDM1 IC50. The format is biochemical. The method, boiled down:
(§1)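 Each enzyme (final 1 pM NDM-1, 2 pM IMP-1, 30 pM VIM-1) was incubated with test inhibitor (20 μM to 0.00063 μM) and 1.25 μM CCF2-FA for 2 hours at 25° C in zinc-supplemented phosphate buffer, pH 7. Fluorescence at 460 nm was then read and IC50 fitted with four parameters.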

The subject of assay [1] is P. aeruginosa MB9798 (efflux WT, IMP-1). As to the kind of experiment: Efflux: concentration of MBL inhibitor restoring susceptibility to imipenem (MITC95), efflux+ strain. The format is cell-based, Pseudomonas aeruginosa. The conditions noted are these: imipenem at 2 μg/mL in the presence of a class A, C, D serine β-lactamase inhibitor closely related to relebactam. The method, boiled down:
(§2)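 Isogenic P. aeruginosa PAO1 strains, efflux+ and efflux−, transformed with IMP-1 plasmid, were tested by microbroth MIC with fixed imipenem, usually at CLSI breakpoint, plus fixed class A/C β-lactamase inhibitor against AmpC. MBL inhibitor was serially titrated; the concentration restoring susceptibility was recorded.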

The target in another assay is VIM-2 (Escherichia coli, UniProt Q5U7L7). The assay is described as follows: Enzyme activity: determination of IC50 (VIM-2). It is filed as biochemical. The conditions noted are these: read-out: VIM2 IC50.
Assay [2] concerns Escherichia coli expressing NDM-1 (CLB30016). The assay is described as follows: Antibiotic potentiation activity: synergistic concentration (MITC95) with imipenem. It is filed as cell-based. The settings on record: imipenem 1 μg/mL; lowest concentration inhibiting 95% of growth; 35° C., 22-24 hours. The method, boiled down: (§3)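 Clinical MBL-expressing strains diluted into 1.1× CAMHB were incubated with compound plus imipenem at 1 μg/mL for 22–24 h at 35 °C, then absorbance was read. MITC95 is the lowest compound concentration giving 95% growth inhibition in the presence of imipenem.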

The subject of assay [3] is Klebsiella pneumoniae expressing VIM-1 (IHMA599644). Described as above. It is filed as cell-based. The conditions noted are these: imipenem 1 μg/mL; lowest concentration inhibiting 95% of growth; 35° C., 22-24 hours. In outline:
as §3

Assay [4] relates to Serratia marcescens expressing IMP-1 (CL5741). The description is as above. It is filed as cell-based. The settings on record: imipenem 1 μg/mL; lowest concentration inhibiting 95% of growth; 35° C., 22-24 hours. In outline:
as §3

The next assay addresses IMP-1 (Serratia marcescens, UniProt P52699). As to the kind of experiment: Enzyme activity: determination of IC50, fluorescence assay with CCF2-FA substrate (IMP-1). The format is biochemical. The conditions noted are these: 2 pM enzyme, 1.25 μM CCF2-FA, 2 hours at 25° C.; read-out: IMP1 IC50. In outline:
as §1

For assay [5], the system named is P. aeruginosa MB9799 (efflux mutant, IMP-1). As to the kind of experiment: Efflux: concentration of MBL inhibitor restoring susceptibility to imipenem (MITC95), efflux− strain. It is filed as cell-based, Pseudomonas aeruginosa. The conditions noted are these: imipenem at 2 μg/mL in the presence of a class A, C, D serine β-lactamase inhibitor closely related to relebactam. The method, boiled down: as §2

The target of the next assay is VIM-1 (Pseudomonas aeruginosa, UniProt A0A0F7KYQ8). As to the kind of experiment: Enzyme activity: determination of IC50, fluorescence assay with CCF2-FA substrate (VIM-1). It is filed as biochemical. The settings on record: 30 pM enzyme, 1.25 μM CCF2-FA, 2 hours at 25° C.; read-out: VIM1 IC50. The method, boiled down:
as §1

NDM-1, sequence (C7C422 29-270, looked up, species assumed): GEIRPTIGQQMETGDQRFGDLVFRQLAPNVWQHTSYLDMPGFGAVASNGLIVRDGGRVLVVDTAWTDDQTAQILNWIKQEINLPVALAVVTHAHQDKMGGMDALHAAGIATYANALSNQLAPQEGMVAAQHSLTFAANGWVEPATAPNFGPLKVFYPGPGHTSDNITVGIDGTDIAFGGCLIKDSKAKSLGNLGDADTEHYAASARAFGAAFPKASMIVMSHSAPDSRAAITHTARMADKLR
IMP-1, sequence (P52699 19-246, looked up, species assumed): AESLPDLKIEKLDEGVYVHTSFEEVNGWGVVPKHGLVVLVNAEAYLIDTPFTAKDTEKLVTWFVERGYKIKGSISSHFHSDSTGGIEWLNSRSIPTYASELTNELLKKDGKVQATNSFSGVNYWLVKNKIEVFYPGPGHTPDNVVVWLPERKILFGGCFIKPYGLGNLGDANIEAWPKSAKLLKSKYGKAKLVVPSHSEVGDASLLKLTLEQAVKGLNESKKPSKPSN

The IC50 is the point on the concentration scale where inhibition reaches its midpoint. In the case of `NS(=O)(=O)c1c(S(=O)(=O)N[C@@H]2CCNC2)ccc(N2CCc3ccncc32)c1-c1nnn[nH]1` [Example 33, 4-(2,3-dihydro-1H-pyrrolo[2,3-c]pyridin-1-yl)-N1-[(3R)-pyrrolidin-3-yl]-3-(1H-tetrazol-5-yl)benzene-1,2-disulfonamide], the IC50 is 0.3 nM at NDM-1, 0.72 nM on VIM-2, 1.73 nM at IMP-1 and 0.26 nM at VIM-1. The “MB9798 MITC95 P. aeruginosa Efflux WT” value in assay [1] came to 6.25 µM. The “CLB30016 E.coli MITC95 NDM” value in [2] worked out at 1.56 µM. For the same compound, the “IHMA599644 K.pneumoniae MITC95 uM VIM” value in assay [3] is 3.13 µM. Besides, the “CL5741 S.marcescens MITC95 uM IMP” value in assay [4] is 3.13 µM. In addition, the “MB9799 MITC95 P. aeruginosa Efflux Mutant” value in assay [5] worked out at 1.56 µM.

As to `NS(=O)(=O)c1c(S(=O)(=O)N[C@@H]2CCNC2)ccc(N2CCc3ncccc32)c1-c1nnn[nH]1` [Example 34, 4-(2,3-dihydro-1H-pyrrolo[3,2-b]pyridin-1-yl)-N1-[(3R)-pyrrolidin-3-yl]-3-(1H-tetrazol-5-yl)benzene-1,2-disulfonamide], the IC50 turned out to be 0.29 nM on NDM-1, 0.81 nM at VIM-2, 5.21 nM on IMP-1 and 0.25 nM at VIM-1. Besides, the “MB9798 MITC95 P. aeruginosa Efflux WT” value in assay [1] is 12.50 µM. In assay [2], the “CLB30016 E.coli MITC95 NDM” value is 0.39 µM. Moreover, the “IHMA599644 K.pneumoniae MITC95 uM VIM” value in assay [3] is 3.13 µM. Also, the “CL5741 S.marcescens MITC95 uM IMP” value in [4] is 1.56 µM. The “MB9799 MITC95 P. aeruginosa Efflux Mutant” value in assay [5] was 1.56 µM.

Turning to `NS(=O)(=O)c1c(S(=O)(=O)N[C@@H]2CCNC2)ccc(N2CCCc3ccc(CCO)nc32)c1-c1nnn[nH]1` [Example 35, 4-[7-(2-hydroxyethyl)-3,4-dihydro-1,8-naphthyridin-1(2H)-yl]-N1-[(3R)-pyrrolidin-3-yl]-3-(1H-tetrazol-5-yl)benzene-1,2-disulfonamide], the IC50 on NDM-1 stood at 4.34 nM; at VIM-2, 5.59 nM; on IMP-1, 4.68 nM; on VIM-1 it was 5.78 nM. For the same compound, the “MB9798 MITC95 P. aeruginosa Efflux WT” value in [1] is 50.00 µM. For the same compound, the “CLB30016 E.coli MITC95 NDM” value in assay [2] turned out to be 0.78 µM. In addition, the “IHMA599644 K.pneumoniae MITC95 uM VIM” value in assay [3] amounted to 6.25 µM. Besides, the “CL5741 S.marcescens MITC95 uM IMP” value in [4] was determined as 1.56 µM. Besides, the “MB9799 MITC95 P. aeruginosa Efflux Mutant” value in [5] was found to be 0.78 µM.

Consider `NC[C@@H](O)CNS(=O)(=O)c1ccc(N2CCc3cccnc32)c(-c2nn[nH]n2)c1S(N)(=O)=O` [Example 36, (R)—N1-(3-amino-2-hydroxypropyl)-4-(2,3-dihydro-1H-pyrrolo [2,3-b]pyridin-1-yl)-3-(2H-tetrazol-5-yl)benzene-1,2-disulfonamide], for which the IC50 at NDM-1 was determined as 0.36 nM; at VIM-2 it was 0.49 nM; at IMP-1, 1.4 nM; at VIM-1, 0.27 nM. Moreover, the “MB9798 MITC95 P. aeruginosa Efflux WT” value in assay [1] was 12.50 µM. Moreover, in assay [2], the “CLB30016 E.coli MITC95 NDM” value is 1.56 µM. Also, the “IHMA599644 K.pneumoniae MITC95 uM VIM” value in [3] amounted to 3.13 µM. Moreover, the “CL5741 S.marcescens MITC95 uM IMP” value in assay [4] came out at 1.56 µM. Further, the “MB9799 MITC95 P. aeruginosa Efflux Mutant” value in [5] stood at 0.78 µM.

Take `NC[C@@H](O)CS(=O)(=O)c1ccc(N2CCCn3ccnc32)c(-c2nn[nH]n2)c1S(N)(=O)=O` [Example 37, (R)-6-((3-amino-2-hydroxypropyl)sulfonyl)-3-(6,7-dihydroimidazo[1,2-a]pyrimidin-8(5H)-yl)-2-(2H-tetrazol-5-yl)benzenesulfonamide]: the IC50 on NDM-1 worked out at 4.31 nM; at VIM-2, 4.44 nM; on IMP-1, 5.6 nM; on VIM-1, 2.22 nM. In assay [1], the “MB9798 MITC95 P. aeruginosa Efflux WT” value came to 3.13 µM. The “CLB30016 E.coli MITC95 NDM” value in [2] came out at 0.20 µM. For the same compound, the “IHMA599644 K.pneumoniae MITC95 uM VIM” value in assay [3] worked out at 1.56 µM. The “CL5741 S.marcescens MITC95 uM IMP” value in assay [4] was determined as 0.78 µM. In assay [5], the “MB9799 MITC95 P. aeruginosa Efflux Mutant” value was found to be 0.78 µM.

Regarding `NC[C@@H](O)CNS(=O)(=O)c1ccc(N2CCC(CO)n3ccnc32)c(-c2nn[nH]n2)c1S(N)(=O)=O` (stereo partly drawn) [Example 38, N1-((R)-3-amino-2-hydroxypropyl)-4-(5-(hydroxymethyl)-6,7-dihydroimidazo[1,2-a]pyrimidin-8(5H)-yl)-3-(2H-tetrazol-5-yl)benzene-1,2-disulfonamide], the IC50 at NDM-1 came to 0.64 nM; on VIM-2, 2.42 nM; at IMP-1, 4.17 nM; on VIM-1, 0.4 nM. For the same compound, the “MB9798 MITC95 P. aeruginosa Efflux WT” value in [1] is 1.56 µM. Also, in assay [2], the “CLB30016 E.coli MITC95 NDM” value worked out at 0.20 µM. Moreover, the “IHMA599644 K.pneumoniae MITC95 uM VIM” value in assay [3] amounted to 1.56 µM. Further, the “CL5741 S.marcescens MITC95 uM IMP” value in assay [4] was 0.78 µM. In assay [5], the “MB9799 MITC95 P. aeruginosa Efflux Mutant” value was found to be 0.78 µM.

For the compound `NC[C@@H](O)CNS(=O)(=O)c1ccc(N2CC[C@@H](CO)n3ccnc32)c(-c2nn[nH]n2)c1S(N)(=O)=O` [Example 39, N1-((R)-3-amino-2-hydroxypropyl)-4-((S)-5-(hydroxymethyl)-6,7-dihydroimidazo[1,2-a]pyrimidin-8(5H)-yl)-3-(2H-tetrazol-5-yl)benzene-1,2-disulfonamide], the IC50 is 0.89 nM on NDM-1, 14.3 nM on VIM-2, 6.52 nM on IMP-1 and 1.62 nM at VIM-1. Further, in assay [1], the “MB9798 MITC95 P. aeruginosa Efflux WT” value was 2.34 µM. Further, in [2], the “CLB30016 E.coli MITC95 NDM” value was 0.29 µM. Also, the “IHMA599644 K.pneumoniae MITC95 uM VIM” value in [3] turned out to be 1.56 µM. For the same compound, in assay [4], the “CL5741 S.marcescens MITC95 uM IMP” value came out at 0.78 µM. The “MB9799 MITC95 P. aeruginosa Efflux Mutant” value in assay [5] stood at 1.17 µM.

Consider `NC[C@@H](O)CNS(=O)(=O)c1ccc(N2CC[C@H](CO)n3ccnc32)c(-c2nn[nH]n2)c1S(N)(=O)=O` [Example 40, N1-((R)-3-amino-2-hydroxypropyl)-4-((R)-5-(hydroxymethyl)-6,7-dihydroimidazo[1,2-a]pyrimidin-8(5H)-yl)-3-(2H-tetrazol-5-yl)benzene-1,2-disulfonamide], for which the IC50 at NDM-1 is 1.15 nM; on VIM-2, 2.09 nM; at IMP-1 it was 5 nM; on VIM-1, 0.27 nM. For the same compound, the “MB9798 MITC95 P. aeruginosa Efflux WT” value in assay [1] stood at 1.56 µM. For the same compound, the “CLB30016 E.coli MITC95 NDM” value in assay [2] came out at 0.10 µM. In addition, the “IHMA599644 K.pneumoniae MITC95 uM VIM” value in assay [3] worked out at 1.56 µM. In assay [4], the “CL5741 S.marcescens MITC95 uM IMP” value was 0.39 µM. In addition, the “MB9799 MITC95 P. aeruginosa Efflux Mutant” value in [5] was determined as 0.78 µM.

`NC[C@@H](O)CNS(=O)(=O)c1ccc(-n2ccnc2)c(-c2nn[nH]n2)c1S(N)(=O)=O` [Example 41, (R)—N1-(3-amino-2-hydroxypropyl)-4-(1H-imidazol-1-yl)-3-(2H-tetrazol-5-yl)benzene-1,2-disulfonamide]: the IC50 at NDM-1 amounted to 0.66 nM; on VIM-2 it was 0.96 nM; at IMP-1 it was 2.97 nM; on VIM-1, 1.05 nM. Besides, in assay [1], the “MB9798 MITC95 P. aeruginosa Efflux WT” value was found to be 1.56 µM. The “CLB30016 E.coli MITC95 NDM” value in [2] came out at 0.78 µM. Moreover, in assay [3], the “IHMA599644 K.pneumoniae MITC95 uM VIM” value stood at 1.56 µM. Also, in [4], the “CL5741 S.marcescens MITC95 uM IMP” value came out at 0.78 µM. In addition, the “MB9799 MITC95 P. aeruginosa Efflux Mutant” value in [5] came out at 0.78 µM.

The record behind these values is patent US20200375987A1, “METALLO-BETA-LACTAMASE INHIBITORS AND METHODS OF USE THEREOF” (priority 2018, published 2020).
